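Where inhibition never reached the appropriate level, the endpoint shown equals the highest concentration tested. Otherwise, values were interpolated linearly from a five-concentration, 48-hour dose response in 96-well plates. Here, GI50 denotes the concentration required for 50% inhibition of growth. Definition used: TGI = concentration required for complete inhibition of growth.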
System: NCI-H23 lung
Assay: DTP human tumour cell line panel, 48 h

Compound | TGI [µM] | GI50 [µM]
Cc1cc2c(cc1C)[n+](=O)c(C(=O)C/C(=N/NC(=O)CC#N)C(=O)Nc1ccccc1C(F)(F)F)c(C)n2[O-] | > 100 | –
COC(=O)/C(=N/NC(=O)C[N+](C)(C)C)C(C(=O)OC)C(=O)C(=O)Nc1ccc(F)cc1 (stereo unspecified) | > 100 | –
O=C(c1ccccc1)c1nnc(C(=O)c2ccccc2)nn1 | > 344 | –
Brc1cccc(C=NC23CC4CC(CC(C4)C2)C3)c1 | > 100 | –
CCC[CH2][Sn]([CH2]CCC)([O]C(=O)c1cccnc1SC)[O]C(=O)c1cccnc1SC | 2.1 | 0.771
CC[C@@]1(O)C(=O)OCc2c1cc1n(c2=O)Cc2c-1nc1cc3c(cc1c2CCl)OCO3 | < 0.0153 | < 0.01
O=C1O[C@@H](c2ccc3c(c2)OCO3)C2C(=O)O[C@@H](c3ccc4c(c3)OCO4)C12 (stereo partly specified) | > 100 | –
O=C1CCC(=O)N2CCCCN12 | > 100 | –
CC(C)C(=O)NC(=S)Nc1ccc([N+](=O)[O-])cc1C#N | > 100 | –
C/C(CC(=O)Nc1cc(Cl)c(Cl)cc1Cl)=N\NC(N)=O | > 100 | –
N#Cc1cc([N+](=O)[O-])ccc1NC(=O)C(=O)Nc1n[nH]c(N)n1 | > 100 | –
O=C(/C=C/c1c(O)ccc2ccccc12)c1cccc(O)c1 | > 100 | –
CC1=NN(C(=O)Nc2ccccc2)C(=O)C2CCC(=O)N12 (stereo unspecified) | > 100 | –
Oc1ccc(NCc2nc3ccccc3[nH]2)cc1 | > 100 | 54.5
COC(=O)C1Cc2c(n(Cc3ccccc3)c3ccccc23)C(CCC(=O)O)N1C(C)C (stereo unspecified) | > 100 | –
O=C(O)CNS(=O)(=O)c1ccc(NCc2ccccc2)cc1 | > 100 | –
O=C1c2cc(Cl)ccc2S(=O)(=O)c2c(NCCCNCCO)nc3ccccc3c21 | 4.4 | 1.77
CC(C)(C)C1C=C(Sc2ccccc2)C(=O)O1 (stereo unspecified) | > 100 | –
CCC[CH2][Sn]1([CH2]CCC)[O]Cc2nc(C)ccc2[O]1 | 4.79 | 1.84
O=c1/c(=C/c2ccco2)sc2nc3ccccc3n12 | > 100 | > 100
O=C1CCC2(c3ccc(F)cc3)Nc3cc(Cl)ccc3N12 (stereo unspecified) | > 100 | –
O=c1[nH]ncc(Br)c1Br | 3.54 | 1.92
C/C(CC(=O)Nc1ccc(C)cc1C)=N/N=C(N)N | > 100 | –
COc1ccc(-c2cc(=O)c3c(OC)c(OC)c(OC)cc3o2)cc1 | > 100 | –

System: SK-MEL-28 melanoma
Assay: DTP human tumour cell line panel, 48 h

Compound | TGI [µM] | GI50 [µM]
COC(=O)c1c/c(=N\NC(=O)CC(=O)Nc2ccccc2OC)c2ccccc2o1 | > 100 | –
NC(CCC(=O)NC(CSSCCCCS(=O)O)C(=O)NCC(=O)O)C(=O)O (stereo unspecified) | > 100 | –
C[C@@H]1OC(O)[C@@H](F)[C@H](O)[C@@H]1O (stereo partly specified) | > 100 | > 100
COC12C=C(C)C(CC1)CC2C(=O)O (stereo unspecified) | > 100 | –
NC(=O)c1ccc(I)c(N)c1 | > 100 | > 100
CCc1ccc(/C=C\c2cc(OC)c(OC)c(OC)c2)cc1 | > 100 | 0.0395
O=c1c2cc([N+](=O)[O-])ccc2sc2ccsc12 | > 100 | –
COc1ccc(C2=CC3CCC2C3)cc1 (stereo unspecified) | > 100 | –
COc1ccc(/C=C/CN(C)CCc2ccccc2)cc1OC | > 100 | –
O=C1CCCCN1CCCCC#Cc1ccccc1C#Cc1ccc([N+](=O)[O-])cc1 | 22.4 | 10.5
[Cl-].[Dy+3].[O-]/N=C(\c1ccccc1)c1ccccn1.[O-]/N=C(\c1ccccc1)c1ccccn1.[O-]/N=C(\c1ccccc1)c1ccccn1 | 90.8 | 27.6
NC(=O)C(=O)N/N=C(\CC1(O)C(=O)Nc2ccccc21)c1ccc2ccccc2c1 (stereo unspecified) | > 100 | –
Cc1cc2c(cc1C)[n+](=O)c(C(=O)C/C(=N/NC(=O)CC#N)C(=O)Nc1ccccc1C(F)(F)F)c(C)n2[O-] | > 100 | –
COC(=O)/C(=N/NC(=O)C[N+](C)(C)C)C(C(=O)OC)C(=O)C(=O)Nc1ccc(F)cc1 (stereo unspecified) | > 100 | –
O=C(c1ccccc1)c1nnc(C(=O)c2ccccc2)nn1 | > 344 | –
Brc1cccc(C=NC23CC4CC(CC(C4)C2)C3)c1 | > 100 | –
Nc1nc(Cl)c2ncn(Cc3ccc(C45CC6CC(CC(C6)C4)C5)c(O)c3)c2n1 | 25.9 | 10.6
CCC[CH2][Sn]([CH2]CCC)([O]C(=O)c1cccnc1SC)[O]C(=O)c1cccnc1SC | 2.02 | 0.722

Source: PubChem BioAssay (NCI)
